According to US8962606B2, “Substituted benzosulphonamides” (Bayer Intellectual Property GmbH, priority 2009, dated 2015):

Experiments:
[1] = test system: HCT116 cells [human colorectal cell line]; experiment: HCT116 Cell Titer Glo (CTG) Proliferation Assay [Assay 1]; format: cell-based; conditions: HCT-116, 72 hours incubation
Excerpt: Cell Titer Glo Proliferation Assay
The adherent tumor cell proliferation assay used to test the compounds of the present invention involves a readout called Cell Titre-Glo developed by Promega (Cunningham, B A “A Growing Issue: Cell Proliferation Assays. Modern kits ease quantification of cell growth” The Scientist 2001, 15(13), 26, and Crouch, S P et al., “The use of ATP bioluminescence as a measure of cell proliferation and cytotoxicity” Journal of Immunological Methods 1993, 160, 8 1-88).
Assay 1: HCT116 Cell Titer Glo (CTG) Proliferation Assay:
(§1) HCT116 cells [human colorectal cell line, expressing […]] were plated at a density of 3000 cells/well in 96 well black-clear bottom tissue culture plates (Costar 3603 black/clear bottom) in 100 μl/well DMEM medium (DMEM/Ham's F12) with 10% Fetal Bovine Serum (FBS) and stable Glutamine incubated at 37° C. Sister wells were plated in separate plate for time zero determination. All plates were incubated overnight at 37° C. Take down time zero plate: 100 μl/well CTG solution (Promega Cell Titer Glo solution) were added to time zero wells in sister plate; the plates were mixed for 2 min on orbital shaker to ensure cell lysis, incubated for 10 minutes, luminescence was read on VICTOR3 (Perkin Elmer). Twenty-four hours after cell seeding, test compounds were diluted in 50 μl medium and were added at a final concentration range from as high 10 μM to as low […] depending on the activities of the tested compounds in serial dilutions at a final DMSO concentration of 0.4%. Cells were incubated for 72 hours at 37° C. after addition of the test compound. Then, using a Promega Cell Titer Glo Luminescent® assay kit, 100 μl microliter lysis buffer containing of the enzyme luciferase and its substrate, luciferin mixture, were added to each well and incubated for 10 min at room temperature in the dark to stabilize luminescence signal. The samples were read on VICTOR3 (Perkin Elmer) using Luminescence protocol. The percentage change in cell growth was calculated by normalizing the measurements to the extinctions of the zero point plate (=0%) and the extinction of the untreated (0 μM) cells (=100%). The IC50 values were determined by means of a 4-parameter fit using the company's own software.

[2] = test system: A549 cells [human non small cell lung cancer cell line, expressing mutant K-Ras G12S]; experiment: A549 Cell Titer Glo (CTG) Proliferation Assay [Assay 2]; format: cell-based; conditions: 72 hours incubation
Experimental: as §1
Assay 2: A549 Cell Titer Glo (CTG) Proliferation Assay:
A549 cells [human non small cell lung cancer cell line, expressing mutant K-Ras G12S] were seeded at a density of 2000 cells/well in 96 well black-clear bottom tissue culture plates (Costar 3603 black/clear bottom) in 100 μl/well DMEM medium (DMEM/Ham's F12) with 10% Fetal Bovine Serum (FBS) and stable Glutamine incubated at 37° C. Cell Titer Glo proliferation assays for A549 cells were performed with the same protocol as described afore for HCT116 cells.

[3] = test system: A375 cells [human melanoma cell line, expressing mutant BRAF V600E]; experiment: A375 Crystal Violet (CV) Proliferation Assay [Assay 5]; format: cell-based; conditions: A-375, 96 h, crystal violet staining, 4 days incubation
Experimental: Assay 5: A375 Crystal Violet (CV) Proliferation Assay:
Cell proliferation for A375 cells [human melanoma cell line, expressing mutant BRAF V600E] was measured by crystal violet (CV) staining: Cultivated human A375 cells were plated out in a density of 1500 cells/measurement point in 200 μl of growth medium (DMEM/HAMS F12 with 10% FBS and 2 mM Glutamine) in a 96-well multititer plate. After 24 hours, the cells from a plate (zero plate) were stained with crystal violet (see below), while the medium in the other plates was replaced by fresh culture medium (200 μl) to which the test substances had been added in various concentrations (0 μM, and in the range 0.3 nM-30 μM; the final concentration of the solvent dimethyl sulphoxide was 0.5%). The cells were incubated in the presence of the test substances for 4 days. The cell proliferation was determined by staining the cells with crystal violet: the cells were fixed by adding 20 μl/measurement point of an 11% glutaraldehyde solution at room temperature for 15 min. After the fixed cells had been washed three times with water, the plates were dried at room temperature. The cells were stained by adding 100 μl/measurement point of a 0.1% crystal violet solution (pH adjusted to pH 3 by adding acetic acid). After the stained cells had been washed three times with water, the plates were dried at room temperature. The dye was dissolved by adding 100 μl/measurement point of a 10% acetic acid solution, and the extinction was determined by photometry at a wavelength of 595 nm. The percentage change in cell growth was calculated by normalizing the measurements to the extinctions of the zero point plate (=0%) and the extinction of the untreated (0 μM) cells (=100%). The IC50 values were determined by means of a 4-parameter fit using the company's own software.

MEK1/2 = conditions: second-generation MEK1/2 inhibitor, background [17]; cited from earlier work
colon cancer = conditions: oral treatment, mouse models, background [18]; cited from earlier work

SMILES	IC50 [1] [nM]	IC50 [2] [nM]	IC50 [3] [nM]	IC50 (MEK1/2)	colon cancer growth in vivo (colon cancer)
CCS(=O)(=O)Nc1cccc(Oc2cc(F)cc(Nc3ccc(I)cc3F)c2NS(C)(=O)=O)c1 [Example 2, N-(3-{5-fluoro-3-[(2-fluoro-4-iodophenyl)amino]-2-[(methylsulfonyl)-amino]phenoxy}-phenyl)ethane-sulfonamide]	28.3	39.4	0.899		
CCS(=O)(=O)Nc1cccc(Oc2cc(F)cc(Nc3ccc(I)cc3F)c2NS(=O)(=O)C(C)C)c1 [Example 4, N-(2-{3-[(ethylsulfonyl)amino]phenoxy}-4-fluoro-6-[(2-fluoro-4-iodophenyl)amino]-phenyl)propane-2-sulfonamide]	53.7	92.5	15.6		
CCS(=O)(=O)Nc1cccc(Oc2cc(F)cc(Nc3ccc(I)cc3F)c2NS(N)(=O)=O)c1C [Example 8, N-(3-{5-fluoro-3-[(2-fluoro-4-iodophenyl)amino]-2-(sulfamoylamino)phenoxy}-2-methylphenyl)ethanesulfonamide]	10	4.78	0.68		
CCS(=O)(=O)Nc1cccc(Oc2cc(F)cc(Nc3ccc(I)cc3F)c2NS(N)(=O)=O)c1 [Example 6, N-(3-{5-fluoro-3-[(2-fluoro-4-iodophenyl)amino]-2-(sulfamoylamino)phenoxy}phenyl)ethanesulfonamide]	100	68.9	2.44		
O=C(NOCC1CC1)c1ccc(F)c(F)c1Nc1ccc(I)cc1Cl [PD184352]				low nanomolar range	inhibit colon cancer growth in vivo
C#Cc1ccc(Nc2cc(F)cc(Oc3cccc(NS(=O)(=O)CC)c3)c2NS(=O)(=O)C2CC2)c(F)c1 [Example 9, N-(2-{3-[(ethylsulfonyl)amino]phenoxy}-6-[(4-ethynyl-2-fluorophenyl)amino]-4-fluorophenyl)cyclopropanesulfonamide]	59.6	137	2.39		
CCS(=O)(=O)Nc1cccc(Oc2cc(F)cc(Nc3ccc(I)cc3F)c2NS(=O)(=O)CC)c1 [Example 3, N-(3-{2-[(ethylsulfonyl)amino]-5-fluoro-3-[(2-fluoro-4-iodophenyl)amino]-phenoxy}phenyl)-ethanesulfonamide]	31.7	73.6	1.56		
CCS(=O)(=O)Nc1cccc(Oc2cc(F)cc(Nc3ccc(I)cc3F)c2NS(=O)(=O)C2CC2)c1C [Example 7, N-(2-{3-[(ethylsulfonyl)amino]-2-methylphenoxy}-4-fluoro-6-[(2-fluoro-4-iodophenyl)amino]phenyl)cyclopropanesulfonamide]	3		0.171		
CCS(=O)(=O)Nc1cccc(Oc2cc(F)cc(Nc3ccc(I)cc3F)c2NS(=O)(=O)C2CC2)c1 [Example 1, N-(2-{3-[(ethylsulfonyl)amino]phenoxy}-4-fluoro-6-[(2-fluoro-4-iodophenyl)amino]phenyl)cyclopropanesulfonamide]	26.5	18.1	0.351		

The next lines start with results.

IC50 [1] [nM]	IC50 [2] [nM]	IC50 [3] [nM]	SMILES	IC50 (MEK1/2)	colon cancer growth in vivo (colon cancer)
7.04	6.65		NS(=O)(=O)Nc1cccc(Oc2cc(F)cc(Nc3ccc(I)cc3F)c2NS(=O)(=O)C2CC2)c1 [Example 11, N-{4-fluoro-2-[(2-fluoro-4-iodophenyl)amino]-6-[3-(sulfamoylamino)phenoxy]phenyl}cyclopropanesulfonamide]		
208	319	4.53	NC(=O)c1c(Nc2ccc(I)cc2F)cc(F)cc1Oc1cccc(NS(N)(=O)=O)c1 [reference compound]		
32	36.1	0.729	CC(C)S(=O)(=O)Nc1cccc(Oc2cc(F)cc(Nc3ccc(I)cc3F)c2NS(=O)(=O)C2CC2)c1 [Example 12, N-(4-fluoro-2-[(2-fluoro-4-iodophenyl)amino]-6-{3-[(isopropylsulfonyl)amino]phenoxy}phenyl)cyclopropanesulfonamide]		
70	86.7	7.93	C#Cc1ccc(Nc2cc(F)cc(Oc3cccc(NS(=O)(=O)CC)c3)c2NS(N)(=O)=O)c(F)c1 [Example 10, N-(3-{3-[(4-ethynyl-2-fluorophenyl)amino]-5-fluoro-2-(sulfamoylamino)phenoxy}phenyl)ethanesulfonamide]		
		18.6	NS(=O)(=O)Nc1cc(Oc2cc(F)cc(Nc3ccc(I)cc3F)c2NS(=O)(=O)C2CC2)ccc1F [Example 14, N-{4-fluoro-2-[(2-fluoro-4-iodophenyl)amino]-6-[4-fluoro-3-(sulfamoylamino)phenoxy]phenyl}cyclopropanesulfonamide]		
